Laboratory results as given in patent US20120190669A1, “OXINDOLE COMPOUNDS” (CYLENE PHARMACEUTICALS, INC., priority 2008, published 2012).

biological target: recombinant human PIM2 (Homo sapiens, UniProt Q9P1W9); assay: PIM-2 assay (radiometric); type: biochemical; details: Table 8; read-out: PIM2 IC50
Experimental: Test compounds dissolved and diluted in DMSO ([…]) were added to a reaction mixture comprising […] of 5× Reaction Buffer (40 mM MOPS pH 7.0, 5 mM EDTA), […] of recombinant human PIM2 solution (4 ng PIM-2 dissolved in dilution buffer (20 mM MOPS pH 7.0; EDTA 1 mM; 5% Glycerol; 0.01% Brij 35; […]; […] 2-mercaptoethanol; 1 mg/ml BSA)) and 8 ul of water. Reactions were initiated by the addition of 10 ul of ATP Solution (49% (15 mM MgCl2; 75 uM ATP) 1% ([γ-33P]ATP: Stock 1 mCi/100 μl; 3000 Ci/mmol (Perkin Elmer)) and 10 ul of substrate peptide solution ([…], dissolved in water at a concentration of 1 mM), Reactions were maintained for 10 min at 30° C. The reactions were quenched with 100 ul of 0.75% Phosphoric acid, then transferred to and filtrered through a Phosphocellulose filter plate (Millipore, MSPH-N6B-50). After washing each well 4 times with 0.75% Phosphoric acid, scintillation fluid (20 uL) was added to each well and the residual radioactivity was measured using a Wallac […] counter.

Chain of recombinant human PIM2 (Q9P1W9 whole entry): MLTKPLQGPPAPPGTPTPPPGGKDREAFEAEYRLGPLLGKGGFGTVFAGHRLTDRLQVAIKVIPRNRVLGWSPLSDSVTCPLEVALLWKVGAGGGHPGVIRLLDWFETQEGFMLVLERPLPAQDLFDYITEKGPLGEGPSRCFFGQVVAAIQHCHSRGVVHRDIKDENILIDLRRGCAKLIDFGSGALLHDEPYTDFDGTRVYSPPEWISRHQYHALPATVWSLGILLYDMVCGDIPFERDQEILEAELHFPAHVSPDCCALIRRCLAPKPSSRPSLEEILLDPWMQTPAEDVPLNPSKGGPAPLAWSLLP

IC50 | Structure (SMILES)
< 500 nM | CN1CCCN(C(=O)c2ccc(-c3ccc(/C=C4/C(=O)Nc5ccc(Cl)cc54)o3)cc2)CC1 [drawing 337]
< 500 nM | C/C(=C1\C(=O)Nc2ccc(Cl)cc21)c1ccc(-c2ccc(C(=O)N3CCCN(C)CC3)cc2)o1 [drawing 336]

system: THP-1; assay: Alamar Blue cell proliferation assay, THP-1; type: cell-based; details: Homo sapiens, Table 4, read-out: AB: THP-1
Experimental: (§1) A representative cell-proliferation assay protocol using Alamar Blue dye (stored at 4° C., use 20 ul per well) is described hereafter.
(§2) 96-Well Plate Setup and Compound Treatment
(§3) a. Split and trypsinize cells.
(§4) b. Count cells using hemocytometer.
(§5) c. Plate 4,000-5,000 cells per well in 100 μl of medium and seed into a 96-well plate according to the following plate layout. Add cell culture medium only to wells B10 to B12. Wells B1 to B9 have cells but no compound added.
(§6) d. Add 100 μl of 2× drug dilution to each well in a concentration shown in the plate layout above. At the same time, add 100 μl of media into the control wells (wells 1310 to B12). Total volume is 200 μl/well.
(§7) e. Incubate four (4) days at 37° C., 5% CO2 in a humidified incubator.
(§8) f. Add 20 μl Alamar Blue reagent to each well.
(§9) g. Incubate for four (4) hours at 37° C., 5% CO2 in a humidified incubator.
(§10) h. Record fluorescence at an excitation wavelength of 544 nm and emission wavelength of 590 nm using a microplate reader.
(§11) In the assays, cells are cultured with a test compound for approximately four days, the dye is then added to the cells and fluorescence of […] dye is detected after approximately four hours. Different types of cells can be utilized in the assays (e.g., HCT-116 human colorectal carcinoma cells, PC-3 human prostatic cancer cells and MiaPaca human pancreatic carcinoma cells).

IC50 | Structure (SMILES)
3860 nM | O=C(CN1CCCC1)Nc1cccc(-c2ccc(/C=C3/C(=O)Nc4ccccc43)o2)c1 [drawing 236]
2900 nM | O=C1Nc2ccc(Cl)cc2/C1=C\c1ccc(-c2cccc(C(=O)NCCN(CCO)CCO)c2)o1 [drawing 238]
> 30000 nM | O=C1Nc2ccc(Cl)cc2/C1=C\c1ccc(-c2cccc(C(=O)NCCCO)c2)o1
3770 nM | CCN(CC)CCC(=O)Nc1cccc(-c2ccc(/C=C3/C(=O)Nc4ccccc43)o2)c1 [drawing 235]

system: MOLM-13 (AML) xenograft; assay: not given; details: 2008 AACR Annual Meeting, Abstract No. 4974; cited from earlier work

Structure (SMILES) | tumor regression in MOLM-13 (AML) xenograft model
CN1CCC(CNc2ccc3ncc(-c4cccc(OC(F)(F)F)c4)n3n2)CC1 [SGI-1776] | significant tumor regression

biological target: recombinant PIM-1 (Homo sapiens, UniProt P11309); assay: PIM-1 kinase assay (radiometric, 15 uM ATP, DMSO 4%); type: biochemical; details: Table 4; 15 um ATP; read-out: PIM1: IC50 (15 um ATP)
Sequence (P11309 whole entry): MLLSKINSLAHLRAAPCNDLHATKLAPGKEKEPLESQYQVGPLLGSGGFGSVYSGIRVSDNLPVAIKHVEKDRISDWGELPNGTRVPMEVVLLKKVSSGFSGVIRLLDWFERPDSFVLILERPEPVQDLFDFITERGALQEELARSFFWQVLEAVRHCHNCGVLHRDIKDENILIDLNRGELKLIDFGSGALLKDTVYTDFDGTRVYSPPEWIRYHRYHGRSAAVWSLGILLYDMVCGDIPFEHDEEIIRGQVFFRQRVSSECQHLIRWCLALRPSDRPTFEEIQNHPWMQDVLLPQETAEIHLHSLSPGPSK

IC50 | Structure (SMILES)
549 nM | O=C(CN1CCCC1)Nc1cccc(-c2ccc(/C=C3/C(=O)Nc4ccccc43)o2)c1 [drawing 236]
81 nM | O=C1Nc2ccc(Cl)cc2/C1=C\c1ccc(-c2cccc(C(=O)NCCN(CCO)CCO)c2)o1 [drawing 238]
259 nM | CCN(CC)CCC(=O)Nc1cccc(-c2ccc(/C=C3/C(=O)Nc4ccccc43)o2)c1 [drawing 235]

system: MV-4-11 (AML) xenograft; assay: not given; details: 2008 AACR Annual Meeting, Abstract No. 4974; cited from earlier work

Structure (SMILES) | tumor regression in MV-4-11 (AML) xenograft model
CN1CCC(CNc2ccc3ncc(-c4cccc(OC(F)(F)F)c4)n3n2)CC1 [SGI-1776] | significant tumor regression

system: K-562; assay: Alamar Blue cell proliferation assay, K-562; type: cell-based; details: Homo sapiens, K562, Table 4, read-out: AB: K-562
Experimental: as §1, §2, §3, §4, §5, §6, §7, §8, §9, §10, §11

IC50 | Structure (SMILES)
1370 nM | O=C(CN1CCCC1)Nc1cccc(-c2ccc(/C=C3/C(=O)Nc4ccccc43)o2)c1 [drawing 236]
1610 nM | O=C1Nc2ccc(Cl)cc2/C1=C\c1ccc(-c2cccc(C(=O)NCCN(CCO)CCO)c2)o1 [drawing 238]
> 10000 nM | O=C1Nc2ccc(Cl)cc2/C1=C\c1ccc(-c2cccc(C(=O)NCCCO)c2)o1
472 nM | CCN(CC)CCC(=O)Nc1cccc(-c2ccc(/C=C3/C(=O)Nc4ccccc43)o2)c1 [drawing 235]

system: MV-4-11; assay: Alamar Blue cell proliferation assay, MV-4-11; type: cell-based; details: Homo sapiens, MV4-11, Table 4, read-out: AB: MV-4-11
Experimental: as §1, §2, §3, §4, §5, §6, §7, §8, §9, §10, §11

IC50 | Structure (SMILES)
350 nM | O=C(CN1CCCC1)Nc1cccc(-c2ccc(/C=C3/C(=O)Nc4ccccc43)o2)c1 [drawing 236]
288 nM | O=C1Nc2ccc(Cl)cc2/C1=C\c1ccc(-c2cccc(C(=O)NCCN(CCO)CCO)c2)o1 [drawing 238]
608 nM | O=C1Nc2ccc(Cl)cc2/C1=C\c1ccc(-c2cccc(C(=O)NCCCO)c2)o1
349 nM | CCN(CC)CCC(=O)Nc1cccc(-c2ccc(/C=C3/C(=O)Nc4ccccc43)o2)c1 [drawing 235]

system: MiaPaca human pancreatic carcinoma cells; assay: Alamar Blue cell proliferation assay, MiaPaCa; type: cell-based; details: MIA PaCa-2, Table 4, read-out: AB: MiaPaCa
Experimental: as §1, §2, §3, §4, §5, §6, §7, §8, §9, §10, §11

IC50 | Structure (SMILES)
> 10000 nM | O=C(CN1CCCC1)Nc1cccc(-c2ccc(/C=C3/C(=O)Nc4ccccc43)o2)c1 [drawing 236]
> 30000 nM | O=C1Nc2ccc(Cl)cc2/C1=C\c1ccc(-c2cccc(C(=O)NCCN(CCO)CCO)c2)o1 [drawing 238]
> 30000 nM | O=C1Nc2ccc(Cl)cc2/C1=C\c1ccc(-c2cccc(C(=O)NCCCO)c2)o1
101 nM | CCN(CC)CCC(=O)Nc1cccc(-c2ccc(/C=C3/C(=O)Nc4ccccc43)o2)c1 [drawing 235]

system: PC-3 human prostatic cancer cells; assay: Alamar Blue cell proliferation assay, PC3; type: cell-based; details: Table 4, read-out: AB: PC3
Experimental: as §1, §2, §3, §4, §5, §6, §7, §8, §9, §10, §11

IC50 | Structure (SMILES)
1350 nM | O=C(CN1CCCC1)Nc1cccc(-c2ccc(/C=C3/C(=O)Nc4ccccc43)o2)c1 [drawing 236]
> 30000 nM | O=C1Nc2ccc(Cl)cc2/C1=C\c1ccc(-c2cccc(C(=O)NCCN(CCO)CCO)c2)o1 [drawing 238]
> 30000 nM | O=C1Nc2ccc(Cl)cc2/C1=C\c1ccc(-c2cccc(C(=O)NCCCO)c2)o1
3930 nM | CCN(CC)CCC(=O)Nc1cccc(-c2ccc(/C=C3/C(=O)Nc4ccccc43)o2)c1 [drawing 235]

system: phospho FLT3; assay: phospho FLT3 cell-based data; details: Table 4

IC50 | Structure (SMILES)
> 10000 nM | O=C(CN1CCCC1)Nc1cccc(-c2ccc(/C=C3/C(=O)Nc4ccccc43)o2)c1 [drawing 236]
> 10000 nM | O=C1Nc2ccc(Cl)cc2/C1=C\c1ccc(-c2cccc(C(=O)NCCN(CCO)CCO)c2)o1 [drawing 238]
> 10000 nM | O=C1Nc2ccc(Cl)cc2/C1=C\c1ccc(-c2cccc(C(=O)NCCCO)c2)o1
> 10000 nM | CCN(CC)CCC(=O)Nc1cccc(-c2ccc(/C=C3/C(=O)Nc4ccccc43)o2)c1 [drawing 235]

biological target: T1, Pim-3 (h) (Homo sapiens, UniProt Q86V86); assay: PIM-3 assay run at Millipore; type: biochemical; details: Table 8; read-out: PIM3 IC50
T1 construct: purchased Millipore (printed 'Millopore'; assay run as a service at the vendor)
Experimental: The PIM-3 assay was run at Millopore. The following is the assay as described in the Millopore protocol guide. […] (specific activity approx. 500 cpm/pmol, concentration as required). The reaction is initiated by the addition of the MgATP mix. After incubation for 40 minutes at room temperature, the reaction is stopped by the addition of 5 μL of a 3% phosphoric acid solution. 10 μL of the reaction is then spotted onto a P30 filtermat and washed three times for 5 minutes in 75 mM phosphoric acid and once in methanol prior to drying and scintillation counting.

IC50 | Structure (SMILES)
< 1000 nM | CN1CCCN(C(=O)c2ccc(-c3ccc(/C=C4/C(=O)Nc5ccc(Cl)cc54)o3)cc2)CC1 [drawing 337]
< 1000 nM | C/C(=C1\C(=O)Nc2ccc(Cl)cc21)c1ccc(-c2ccc(C(=O)N3CCCN(C)CC3)cc2)o1 [drawing 336]

system: phospho BAD; assay: phospho BAD cell-based data; details: Table 4

IC50 | Structure (SMILES)
2130 nM | O=C(CN1CCCC1)Nc1cccc(-c2ccc(/C=C3/C(=O)Nc4ccccc43)o2)c1 [drawing 236]
609 nM | O=C1Nc2ccc(Cl)cc2/C1=C\c1ccc(-c2cccc(C(=O)NCCN(CCO)CCO)c2)o1 [drawing 238]
3500 nM | O=C1Nc2ccc(Cl)cc2/C1=C\c1ccc(-c2cccc(C(=O)NCCCO)c2)o1
1410 nM | CCN(CC)CCC(=O)Nc1cccc(-c2ccc(/C=C3/C(=O)Nc4ccccc43)o2)c1 [drawing 235]
